Measured values reported in patent US10590140B2, “Tetrahydropyrimidodiazepine and dihydropyridodiazepine compounds for treating pain and pain related conditions” (ESTEVE PHARMACEUTICALS, S.A., priority 2016, dated 2020).
Like-named read-outs stand apart in the source and are kept apart here.

Molecular target: human α2δ-1 subunit of Cav2.2 calcium channel (Homo sapiens (Human), UniProt P54289)
Assay: Binding assay to human α2δ-1 subunit of Cav2.2 calcium channel ([3H]-Gabapentin)
Outline: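 [3H]-gabapentin binding, 60 min at 27° C; nonspecific binding defined with 10 μM pregabalin. Terminated by filtration on PEI-presoaked GF/C filters, ice-cold 50 mM Tris-HCl pH 7.4 washes, then scintillation counting.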

[1] = binding to α2δ-1, [3H]-Gabapentin, read-out: Ki (nM) α2δ-1

Sequence of human α2δ-1 subunit of Cav2.2 calcium channel (P54289 25-1103): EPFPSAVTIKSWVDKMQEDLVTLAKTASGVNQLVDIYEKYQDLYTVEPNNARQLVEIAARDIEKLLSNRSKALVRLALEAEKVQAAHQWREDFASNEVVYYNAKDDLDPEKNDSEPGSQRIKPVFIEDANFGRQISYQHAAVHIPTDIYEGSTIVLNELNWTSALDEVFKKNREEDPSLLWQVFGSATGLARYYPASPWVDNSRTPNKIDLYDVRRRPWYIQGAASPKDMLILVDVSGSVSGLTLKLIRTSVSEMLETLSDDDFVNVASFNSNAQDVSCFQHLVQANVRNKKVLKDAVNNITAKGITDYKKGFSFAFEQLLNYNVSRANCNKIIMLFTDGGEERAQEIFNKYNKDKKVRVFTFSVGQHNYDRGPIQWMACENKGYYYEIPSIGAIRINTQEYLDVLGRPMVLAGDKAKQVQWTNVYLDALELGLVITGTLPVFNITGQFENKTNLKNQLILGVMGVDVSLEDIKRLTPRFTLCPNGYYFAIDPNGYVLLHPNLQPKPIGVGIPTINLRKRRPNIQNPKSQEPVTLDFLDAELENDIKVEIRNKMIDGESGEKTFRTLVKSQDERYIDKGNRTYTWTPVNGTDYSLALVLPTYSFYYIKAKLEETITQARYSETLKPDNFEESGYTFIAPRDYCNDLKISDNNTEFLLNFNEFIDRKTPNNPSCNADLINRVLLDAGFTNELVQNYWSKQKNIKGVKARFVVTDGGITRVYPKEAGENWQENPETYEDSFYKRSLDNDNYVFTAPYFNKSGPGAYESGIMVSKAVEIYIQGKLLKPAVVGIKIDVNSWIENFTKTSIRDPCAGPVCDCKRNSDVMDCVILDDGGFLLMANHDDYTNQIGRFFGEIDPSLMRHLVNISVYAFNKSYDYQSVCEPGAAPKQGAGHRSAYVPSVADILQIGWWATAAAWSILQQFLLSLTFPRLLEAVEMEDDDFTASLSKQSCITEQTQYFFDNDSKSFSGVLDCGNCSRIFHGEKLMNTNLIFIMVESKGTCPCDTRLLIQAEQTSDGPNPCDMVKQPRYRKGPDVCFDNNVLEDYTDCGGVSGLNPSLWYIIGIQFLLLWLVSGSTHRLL

Ki [1] [nM] | SMILES | also measured
> 3000 | CCNc1ncc2c(n1)N(C)CCN(c1cccc(C3=CCN(C(=O)OC(C)(C)C)CC3)c1)C2=O [Example 233, tert-Butyl 4-(3-(2-(ethylamino)-9-methyl-5-oxo-5,7,8,9-tetrahydro-6H-pyrimido[4,5-e][1,4]diazepin-6-yl)phenyl)-3,6-dihydropyridine-1(2H)-carboxylate] | –
500 to 3000 | CCNc1ncc2c(n1)N(C)CCN(c1cccc(OC(CN(C)Cc3ccccc3)C(C)C)c1)C2=O (stereo not shown) [Example 267, 6-(3-((1-(benzyl(methyl)amino)-3-methylbutan-2-yl)oxy)phenyl)-2-(ethylamino)-9-methyl-6,7,8,9-tetrahydro-5H-pyrimido[4,5-e][1,4]diazepin-5-one] | –
> 3000 | CCNc1ncc2c(n1)N(C)CCN(Cc1ccccc1OC(CCNC)c1ccccc1)C2=O (stereo not shown) [Example 409, 2-(ethylamino)-9-methyl-6-(2-(3-(methylamino)-1-phenylpropoxy)benzyl)-6,7,8,9-tetrahydro-5H-pyrimido[4,5-e][1,4]diazepin-5-one] | –
100 to 500 | CCNc1ncc2c(n1)N(C)CCN(c1cccc(-c3noc(C)n3)c1)C2=O [Example 108, 2-(ethylamino)-9-methyl-6-(3-(5-methyl-1,2,4-oxadiazol-3-yl)phenyl)-6,7,8,9-tetrahydro-5H-pyrimido[4,5-e][1,4]diazepin-5-one] | –
> 3000 | Cc1nnc(-c2cccc(N3CCN(C)c4nc(N(C)Cc5ccccn5)ncc4C3=O)c2)o1 [Example 106, 9-methyl-2-(methyl (pyridin-2-ylmethyl)amino)-6-(3-(5-methyl-1,3,4-oxadiazol-2-yl)phenyl)-6,7,8,9-tetrahydro-5H-pyrimido[4,5-e][1,4]diazepin-5-one] | –
> 3000 | CCNc1ncc2c(n1)N(C)CCN(c1cccc(OC(C)CN(C)C(=O)OC(C)(C)C)c1)C2=O (stereo not shown) [Example 74, tert-butyl (2-(3-(2-(ethylamino)-9-methyl-5-oxo-5,7,8,9-tetrahydro-6H-pyrimido[4,5-e][1,4]diazepin-6-yl)phenoxy)propyl) (methyl)carbamate] | –
> 3000 | CSc1ncc2c(n1)N(C)CCN(c1cccc(COC(C)CCN(C)C(=O)OC(C)(C)C)c1)C2=O (stereo not shown) [Example 50, tert-butyl methyl(3-((3-(9-methyl-2-(methylthio)-5-oxo-5,7,8,9-tetrahydro-6H-pyrimido[4,5-e][1,4]diazepin-6-yl)benzyl)oxy)butyl) carbamate] | –
> 3000 | CCNc1ncc2c(n1)N(C)CCN(c1cccc(O[C@H](CCN(C)C(=O)OC(C)(C)C)c3ccccc3)c1)C2=O [Example 70, tert-butyl (R)-(3-(3-(2-(ethylamino)-9-methyl-5-oxo-5,7,8,9-tetrahydro-6H-pyrimido[4,5-e][1,4]diazepin-6-yl)phenoxy)-3-phenylpropyl)(methyl) carbamate] | –
< 100 | CCNc1ncc2c(n1)N(C)CCN(c1cccc(-c3nnc(C)o3)c1)C2=O [Example 97, 2-(ethylamino)-9-methyl-6-(3-(5-methyl-1,3,4-oxadiazol-2-yl)phenyl)-6,7,8,9-tetrahydro-5H-pyrimido[4,5-e][1,4]diazepin-5-one] | –
> 3000 | Cc1ncc2c(n1)N(C)CCN(c1cccc(COC(CCN(C)C(=O)OC(C)(C)C)c3cccs3)c1)C2=O (stereo not shown) [Example 143, tert-butyl (3-((3-(2,9-dimethyl-5-oxo-5,7,8,9-tetrahydro-6H-pyrimido[4,5-e][1,4]diazepin-6-yl)benzyl)oxy)-3-(thiophen-2-yl)propyl)(methyl) carbamate] | –
500 to 3000 | CCNc1ncc2c(n1)N(C)CCN(c1cccc(Cn3cc(CNC)nn3)c1)C2=O [Example 184, 2-(ethylamino)-9-methyl-6-(3-((4-((methylamino)methyl)-1H-1,2,3-triazol-1-yl)methyl)phenyl)-6,7,8,9-tetrahydro-5H-pyrimido[4,5-e][1,4]diazepin-5-one] | –
> 3000 | CCNc1ncc2c(n1)N(C)CCN(Cc1cccc(OC)c1)C2 [Example 67, N-ethyl-6-(3-methoxybenzyl)-9-methyl-6,7,8,9-tetrahydro-5H-pyrimido[4,5-e][1,4]diazepin-2-amine] | –
100 to 500 | CCNc1ncc2c(n1)N(C)CCN(c1cccc(-n3cc(CN4CCC5(CC4)CN(C(C)C)C(=O)[C@@H](C)O5)nn3)c1)C2=O [Example 284, (R)-9-((1-(3-(2-(ethylamino)-9-methyl-5-oxo-5,7,8,9-tetrahydro-6H-pyrimido[4,5-e] [1,4]diazepin-6-yl)phenyl)-1H-1,2,3-triazol-4-yl)methyl)-4-isopropyl-2-methyl-1-oxa-4,9-diazaspiro[5.5] undecan-3-one] | –
> 3000 | CCNc1ncc2c(n1)N(C)CCN(Cc1cccc(OC(CN(C)C(=O)OC(C)(C)C)c3ccccc3)c1)C2=O (stereo not shown) [Example 135, tert-butyl (2-(3-((2-(ethylamino)-9-methyl-5-oxo-5,7,8,9-tetrahydro-6H-pyrimido[4,5-e][1,4]diazepin-6-yl)methyl)phenoxy)-2-phenylethyl)(methyl) carbamate] | –
> 3000 | CSc1ncc2c(n1)N(C)CCN(c1cccc(CCCN(C)C(=O)OC(C)(C)C)c1)C2=O [Example 23, tert-butyl methyl(3-(3-(9-methyl-2-(methylthio)-5-oxo-5,7,8,9-tetrahydro-6H-pyrimido[4,5-e][1,4]diazepin-6-yl)phenyl)propyl) carbamate] | –
> 3000 | COc1ncc2c(n1)N(C)CCN(c1cccc(CO[C@H](CCN(C)C(=O)OC(C)(C)C)c3ccccc3)c1)C2=O [Example 138, tert-Butyl (R)-(3-((3-(2-methoxy-9-methyl-5-oxo-5,7,8,9-tetrahydro-6H-pyrimido[4,5-e][1,4]diazepin-6-yl)benzyl)oxy)-3-phenylpropyl)(methyl)carbamate] | –
> 3000 | CCNc1ncc2c(n1)N(C)CCN(Cc1ccccc1COC(CNC)c1ccccc1)C2=O (stereo not shown) [Example 412, 2-(ethylamino)-9-methyl-6-(2-((2-(methylamino)-1-phenylethoxy)methyl)benzyl)-6,7,8,9-tetrahydro-5H-pyrimido[4,5-e][1,4]diazepin-5-one] | –
100 to 500 | CCNc1ncc2c(n1)N(C)CCN(c1cccc(-n3cc(CN4CCC(c5cccc(O)c5)(N(C)C)CC4)cn3)c1)C2=O [Example 295, 6-(3-(4-((4-(dimethylamino)-4-(3-hydroxyphenyl)piperidin-1-yl)methyl)-1H-pyrazol-1-yl)phenyl)-2-(ethylamino)-9-methyl-6,7,8,9-tetrahydro-5H-pyrimido[4,5-e] [1,4]diazepin-5-one] | –
> 3000 | COc1ccc(N2CCN(C)c3nc(SC)ncc3C2=O)cc1 [Example 37, 6-(4-methoxyphenyl)-9-methyl-2-(methylthio)-6,7,8,9-tetrahydro-5H-pyrimido[4,5-e][1,4]diazepin-5-one] | –
– | CCNc1ncc2c(n1)N(C)CCN(c1cccc(CO[C@@H](CCNC)c3cccs3)c1)C2=O (stereo in doubt) [Example 213] | Ki: 500 to 3000 nM; Ki (read-out: Ki (nM) α2δ-1, Table 2, dual compounds, [3H]-Gabapentin binding): 500 to 3000 nM
500 to 3000 | CCNc1cc2c(cn1)C(=O)N(c1cccc(-c3nnc(C)n3CC)c1)CCN2C [Example 55, 4-(3-(4-ethyl-5-methyl-4H-1,2,4-triazol-3-yl)phenyl)-8-(ethylamino)-1-methyl-1,2,3,4-tetrahydro-5H-pyrido[4,3-e][1,4]diazepin-5-one] | –
100 to 500 | CCNc1ncc2c(n1)N(C)CCN(c1cccc(-n3cc(CN4CCN(c5ccccc5)CC4)nn3)c1)C2=O [Example 280, 2-(ethylamino)-9-methyl-6-(3-(4-((4-phenylpiperazin-1-yl)methyl)-1H-1,2,3-triazol-1-yl)phenyl)-6,7,8,9-tetrahydro-5H-pyrimido[4,5-e] [1,4]diazepin-5-one] | –
100 to 500 | CCNc1ncc2c(n1)N(C)CCN(c1cccc(OCCCN(C)C)c1)C2=O [Example 257, 6-(3-(3-(dimethylamino)propoxy)phenyl)-2-(ethylamino)-9-methyl-6,7,8,9-tetrahydro-5H-pyrimido[4,5-e][1,4]diazepin-5-one] | –
> 3000 | CSc1ncc2c(n1)N(C)CCN(c1cccc(-c3nnc(C)o3)c1)C2=O [Example 29, 9-methyl-6-(3-(5-methyl-1,3,4-oxadiazol-2-yl)phenyl)-2-(methylthio)-6,7,8,9-tetrahydro-5H-pyrimido[4,5-e][1,4]diazepin-5-one] | –
> 3000 | CCNc1ncc2c(n1)N(C)CCN(c1cccc(O[C@@H](CCN(C)C(=O)OC(C)(C)C)c3cccs3)c1)C2=O [Example 82, tert-butyl (S)-(3-(3-(2-(ethylamino)-9-methyl-5-oxo-5,7,8,9-tetrahydro-6H-pyrimido[4,5-e][1,4]diazepin-6-yl)phenoxy)-3-(thiophen-2-yl)propyl)(methyl) carbamate] | –
100 to 500 | CCNc1ncc2c(n1)N(C)CCN(c1cccc(OC3CCNC3)c1)C2=O (stereo not shown) [Example 175, 2-(ethylamino)-9-methyl-6-(3-(pyrrolidin-3-yloxy)phenyl)-6,7,8,9-tetrahydro-5H-pyrimido[4,5-e][1,4]diazepin-5-one] | –

SMILES | Ki [1] [nM] | also measured
CCNc1ncc2c(n1)N(C)CCN(c1cccc(COC(CCNC)c3cccs3)c1)C2=O (stereo not shown) [Example 211, 2-(ethylamino)-9-methyl-6-(3-((3-(methylamino)-1-(thiophen-2-yl)propoxy)methyl)phenyl)-6,7,8,9-tetrahydro-5H-pyrimido[4,5-e][1,4]diazepin-5-one] | 100 to 500 | Ki (Table 2, dual compounds, [3H]-Gabapentin binding, read-out: Ki (nM) α2δ-1): 100 to 500 nM
CSc1ncc2c(n1)N(C)CCN(c1cccc(OC(CCN(C)C(=O)OCC[Si](C)(C)C)c3cccs3)c1)C2=O (stereo not shown) [Example 51, 2-(trimethyl-silyl)ethyl methyl(3-(3-(9-methyl-2-(methylthio)-5-oxo-5,7,8,9-tetrahydro-6H-pyrimido[4,5-e][1,4]diazepin-6-yl)phenoxy)-3-(thiophen-2-yl)propyl) carbamate] | > 3000 | –
CCNc1ncc2c(n1)N(C)CCN(c1cccc(CCN3CCC(c4ccccc4)(N(C)C)CC3)c1)C2=O [Example 438, 6-(3-(2-(4-(dimethylamino)-4-phenylpiperidin-1-yl)ethyl)phenyl)-2-(ethylamino)-9-methyl-6,7,8,9-tetrahydro-5H-pyrimido[4,5-e][1,4]diazepin-5-one] | 500 to 3000 | –
